# Test results from patent US8557272B2, “Device for local and/or regional delivery employing liquid formulations of therapeutic agents” (Cordis Corporation, priority 2004, dated 2013).
# What was measured:
# LDL = LDL peroxidation lag phase ex vivo (diene conjugates after copper ions); set-up: species or system human; conditions: treatment for one month; preliminary results
# Source text: Dietary intervention and smoking habits were similar in all groups. Probucol may simply be a more powerful antioxidant than the combination of vitamins. To this regard, preliminary results from the continuous spectrophotometric monitoring of diene conjugates in LDL after the addition of copper ions to the isolated lipoprotein ex vivo (Free Radic Res Commun 1989; 6:67-75) of MVP patients are noteworthy.
# [1] = MVP IVUS substudy after balloon angioplasty; type: in vivo, human
# Source text: Serial intravascular ultrasound (IVUS) examinations have been performed in a consecutive series of patients involved in the MVP trial. By providing tomographic views of coronary arteries with high resolution, IVUS allows quantitative assessment of changes in arterial lumen and wall dimensions. We were therefore able in this study to determine the pathophysiology of coronary restenosis after balloon angioplasty in patients systematically undergoing follow-up IVUS examination and determine the effect of probucol on tissue hyperplasia and vascular remodeling after coronary angioplasty. The present invention concerns the IVUS substudy from the MVP restenosis trial. […] Briefly, patients referred for elective coronary angioplasty were evaluated at least 30 days prior to their scheduled procedure. […] The sequence of contrast injections with the exact degree of angulation was recorded and used for every angiogram. Coronary arteriograms (pre-, post-procedure, and final follow-up) were analyzed together using the Coronary Measurement System (CMS), as previously reported. […] Patients were readmitted for follow-up coronary angiography at five to seven months. […] IVUS imaging was monitored by an experienced cardiologist, but the angioplasty operator was blinded to ultrasound results to avoid altering standard balloon angioplasty practice. […]
# [2] = MVP randomized clinical trial, angiographic and clinical outcome; type: in vivo, human; conditions: probucol given alone, compared to placebo
# Source text: It was not possible to determine with angiography alone whether probucol acted via inhibition of tissue hyperplasia or improvement in vascular remodeling. […] In addition, the invention enables the skilled practitioner to use probucol in conjunction with other percutaneous coronary interventions such as stenting if it is deemed appropriate.
# The present invention concerns the IVUS substudy from the MVP restenosis trial. MVP was a double-blind placebo-controlled randomized clinical trial with four study groups. The protocol was approved by the Montreal Heart Institute institutional review board. The MVP study design, inclusion and exclusion criteria have been previously described (N Engl J Med 1997; 365-372). Briefly, patients referred for elective coronary angioplasty were evaluated at least 30 days prior to their scheduled procedure. Eligible patients were asked to provide written informed consent. Patients were eligible if they were scheduled to undergo standard balloon angioplasty on at least one native coronary artery and had at least one de novo target lesion with luminal narrowing of fifty percent or more by caliper measurements.
# Beginning thirty days prior to scheduled angioplasty, patients were randomly assigned to receive either probucol alone, multivitamins alone, the combination of probucol and multivitamins, or placebo. Probucol 500 mg or matched placebo was administered twice daily. The multivitamin complex, consisting of vitamin E 700 IU, vitamin C 500 mg and beta-carotene 30,000 IU, or matched placebo was also administered in one tablet twice daily. […] The sequence of contrast injections with the exact degree of angulation was recorded and used for every angiogram. Coronary arteriograms (pre-, post-procedure, and final follow-up) were analyzed together using the Coronary Measurement System (CMS), as previously reported. […] Patients were readmitted for follow-up coronary angiography at five to seven months. […]
compound,measurement,setting,value
"CC(C)(Sc1cc(C(C)(C)C)c(O)c(C(C)(C)C)c1)Sc1cc(C(C)(C)C)c(O)c(C(C)(C)C)c1 [probucol, 4,4′-([1-methylethylidene)bis(thio)]bis-[2,6-bis(1,1-dimethylethyl)phenol]]",protection against LDL oxidation (lag phase for LDL peroxidation),LDL,significantly greater protection against LDL oxidation than vitamins alone or the combination of probucol and vitamins
same,reduction in lumen loss assessed by IVUS,[1]; compared to non-probucol treated patients,0.79 mm^2
same,reduction in lumen loss assessed by IVUS,[1]; probucol given alone compared to the placebo group only,1.06 mm^2
same,reduction of angiographic lumen loss,[2],sixty-eight percent
same,reduction of restenosis rate per segment,[2],forty-seven percent
same,reduction of the need for repeat angioplasty at 6 month,[2],fifty-eight percent
